Results: ChEMBL document CHEMBL4507301 (2021)

Experiments:
[1] = biological target: Ribosomal protein S6 kinase alpha-3 (Homo sapiens) (UniProt P51812); details: Compound concentration 1000.0 nM
[2] = biological target: Alpha-1D adrenergic receptor (Homo sapiens) (UniProt P25100); details: Compound concentration 10.0 uM
[3] = biological target: Serine/threonine-protein kinase BRSK2 (Homo sapiens) (UniProt Q8IWQ3); details: Compound concentration 1000.0 nM
[4] = biological target: Mitogen-activated protein kinase 15 (Homo sapiens) (UniProt Q8TD08); details: Compound concentration 1000.0 nM
Chain of Mitogen-activated protein kinase 15 (Homo sapiens) (Q8TD08 whole entry): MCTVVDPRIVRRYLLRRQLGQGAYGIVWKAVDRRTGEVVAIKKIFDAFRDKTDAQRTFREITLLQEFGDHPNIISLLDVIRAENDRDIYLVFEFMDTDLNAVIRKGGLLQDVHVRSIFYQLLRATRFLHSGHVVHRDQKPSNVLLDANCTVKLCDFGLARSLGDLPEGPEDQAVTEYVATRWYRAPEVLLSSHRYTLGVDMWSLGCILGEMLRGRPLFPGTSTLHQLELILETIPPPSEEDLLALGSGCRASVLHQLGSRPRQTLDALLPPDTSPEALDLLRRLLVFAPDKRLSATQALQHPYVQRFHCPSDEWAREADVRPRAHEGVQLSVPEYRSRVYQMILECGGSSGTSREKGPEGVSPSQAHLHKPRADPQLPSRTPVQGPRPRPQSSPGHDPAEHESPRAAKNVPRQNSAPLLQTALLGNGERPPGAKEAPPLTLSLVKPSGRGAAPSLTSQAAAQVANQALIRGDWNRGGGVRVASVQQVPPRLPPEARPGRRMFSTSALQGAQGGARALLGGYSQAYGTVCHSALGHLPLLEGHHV

[5] = biological target: G protein-coupled receptor kinase 4 (Homo sapiens) (UniProt P32298); details: Compound concentration 1000.0 nM
Chain of G protein-coupled receptor kinase 4 (Homo sapiens) (P32298 whole entry, looked up): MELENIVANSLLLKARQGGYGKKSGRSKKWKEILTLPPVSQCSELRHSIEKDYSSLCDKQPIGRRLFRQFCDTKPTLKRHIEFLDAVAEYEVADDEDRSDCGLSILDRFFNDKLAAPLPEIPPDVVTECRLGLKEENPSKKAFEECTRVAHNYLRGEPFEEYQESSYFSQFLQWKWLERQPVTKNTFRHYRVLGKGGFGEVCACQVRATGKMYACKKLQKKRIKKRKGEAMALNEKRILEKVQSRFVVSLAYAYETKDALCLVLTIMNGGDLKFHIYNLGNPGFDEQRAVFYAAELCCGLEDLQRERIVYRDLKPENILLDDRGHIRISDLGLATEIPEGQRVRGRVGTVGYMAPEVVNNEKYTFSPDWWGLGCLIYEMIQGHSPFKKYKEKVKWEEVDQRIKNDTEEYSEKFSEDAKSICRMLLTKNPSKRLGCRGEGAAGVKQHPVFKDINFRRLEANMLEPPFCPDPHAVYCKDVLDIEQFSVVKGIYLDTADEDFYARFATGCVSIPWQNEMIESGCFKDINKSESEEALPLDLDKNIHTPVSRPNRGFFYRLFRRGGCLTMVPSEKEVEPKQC

[6] = biological target: Myosin-IIIa (Homo sapiens) (UniProt Q8NEV4); details: Compound concentration 1000.0 nM
[7] = biological target: Phosphatidylinositol 4-phosphate 3-kinase C2 domain-containing subunit beta (Homo sapiens) (UniProt O00750); details: Compound concentration 1000.0 nM
Chain of Phosphatidylinositol 4-phosphate 3-kinase C2 domain-containing subunit beta (Homo sapiens) (O00750 whole entry, the tested form may be a part): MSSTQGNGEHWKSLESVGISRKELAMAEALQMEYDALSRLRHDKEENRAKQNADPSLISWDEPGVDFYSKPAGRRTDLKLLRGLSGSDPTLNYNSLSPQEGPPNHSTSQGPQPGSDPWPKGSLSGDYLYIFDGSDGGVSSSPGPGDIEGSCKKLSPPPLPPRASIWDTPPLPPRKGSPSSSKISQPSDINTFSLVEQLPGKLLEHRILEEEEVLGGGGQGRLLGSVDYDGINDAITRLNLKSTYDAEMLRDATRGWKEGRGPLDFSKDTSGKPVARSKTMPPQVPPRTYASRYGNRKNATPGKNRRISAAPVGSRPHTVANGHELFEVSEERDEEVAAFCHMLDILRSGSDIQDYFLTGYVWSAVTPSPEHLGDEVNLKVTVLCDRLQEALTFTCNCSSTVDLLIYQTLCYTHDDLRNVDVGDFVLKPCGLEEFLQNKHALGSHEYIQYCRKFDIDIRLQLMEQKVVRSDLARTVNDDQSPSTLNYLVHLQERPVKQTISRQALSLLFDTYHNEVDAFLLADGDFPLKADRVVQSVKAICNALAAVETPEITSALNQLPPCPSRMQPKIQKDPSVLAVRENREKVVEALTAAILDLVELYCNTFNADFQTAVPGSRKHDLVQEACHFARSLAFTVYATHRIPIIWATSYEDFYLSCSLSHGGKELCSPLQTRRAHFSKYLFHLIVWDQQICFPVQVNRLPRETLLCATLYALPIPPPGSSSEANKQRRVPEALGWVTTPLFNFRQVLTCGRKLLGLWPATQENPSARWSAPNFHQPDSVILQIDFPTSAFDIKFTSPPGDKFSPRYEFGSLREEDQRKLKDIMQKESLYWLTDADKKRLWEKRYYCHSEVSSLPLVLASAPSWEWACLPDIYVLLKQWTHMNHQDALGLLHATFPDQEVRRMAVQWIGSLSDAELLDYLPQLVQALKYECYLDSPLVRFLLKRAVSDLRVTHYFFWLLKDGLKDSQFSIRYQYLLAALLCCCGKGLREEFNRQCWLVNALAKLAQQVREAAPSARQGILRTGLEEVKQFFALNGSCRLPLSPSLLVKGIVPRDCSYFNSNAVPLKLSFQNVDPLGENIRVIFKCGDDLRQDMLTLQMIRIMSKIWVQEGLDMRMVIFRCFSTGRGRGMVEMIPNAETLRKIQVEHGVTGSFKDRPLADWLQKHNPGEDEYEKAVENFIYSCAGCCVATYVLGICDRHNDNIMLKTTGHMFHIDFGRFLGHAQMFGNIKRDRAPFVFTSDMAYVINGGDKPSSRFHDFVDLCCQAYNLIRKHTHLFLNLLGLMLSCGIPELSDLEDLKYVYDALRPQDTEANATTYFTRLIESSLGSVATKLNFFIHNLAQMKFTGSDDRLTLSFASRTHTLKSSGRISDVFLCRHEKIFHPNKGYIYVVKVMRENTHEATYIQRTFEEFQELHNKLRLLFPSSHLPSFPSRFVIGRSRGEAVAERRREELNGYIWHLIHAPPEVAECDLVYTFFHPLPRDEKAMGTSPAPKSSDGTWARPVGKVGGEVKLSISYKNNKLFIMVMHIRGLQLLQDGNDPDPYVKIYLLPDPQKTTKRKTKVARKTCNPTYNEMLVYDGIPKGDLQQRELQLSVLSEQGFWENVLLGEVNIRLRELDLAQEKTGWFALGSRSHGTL

[8] = biological target: Ephrin type-A receptor 7 (Homo sapiens) (UniProt Q15375); details: Compound concentration 1000.0 nM
[9] = biological target: Calcium/calmodulin-dependent protein kinase kinase 2 (Homo sapiens) (UniProt Q96RR4); details: Compound concentration 1000.0 nM
[10] = biological target: Serine/threonine-protein kinase D3 (Homo sapiens) (UniProt O94806); details: Compound concentration 1000.0 nM
[11] = system: Fibroblast growth factor receptor 3 (Homo sapiens), P22607 [G697C]; details: Compound concentration 1000.0 nM
[12] = biological target: 5-hydroxytryptamine receptor 1B (Homo sapiens) (UniProt P28222); details: Compound concentration 10.0 uM
[13] = biological target: cGMP-dependent protein kinase 1 (Homo sapiens) (UniProt Q13976); details: Compound concentration 1000.0 nM
[14] = biological target: Tyrosine-protein kinase Fes/Fps (Homo sapiens) (UniProt P07332); details: Compound concentration 1000.0 nM
[15] = biological target: Mitogen-activated protein kinase kinase kinase 14 (Homo sapiens) (UniProt Q99558); details: Compound concentration 1000.0 nM
[16] = biological target: Dual serine/threonine and tyrosine protein kinase (Homo sapiens) (UniProt Q6XUX3); details: Compound concentration 1000.0 nM
[17] = biological target: NUAK family SNF1-like kinase 1 (Homo sapiens) (UniProt O60285); details: Compound concentration 1000.0 nM
[18] = biological target: RAC-alpha serine/threonine-protein kinase (Homo sapiens) (UniProt P31749); details: Compound concentration 1000.0 nM
[19] = biological target: Serine/threonine-protein kinase WNK3 (Homo sapiens) (UniProt Q9BYP7); details: Compound concentration 1000.0 nM
[20] = biological target: Rhodopsin kinase GRK1 (Homo sapiens) (UniProt Q15835); details: Compound concentration 1000.0 nM
[21] = biological target: Mitogen-activated protein kinase kinase kinase 20 (Homo sapiens) (UniProt Q9NYL2); details: Compound concentration 1000.0 nM
[22] = biological target: Alpha-1B adrenergic receptor (Homo sapiens) (UniProt P35368); details: Compound concentration 10.0 uM
[23] = biological target: Serine/threonine-protein kinase PLK2 (Homo sapiens) (UniProt Q9NYY3); details: Compound concentration 1000.0 nM
[24] = biological target: Casein kinase I isoform gamma-2 (Homo sapiens) (UniProt P78368); details: Compound concentration 1000.0 nM
[25] = biological target: Calcium/calmodulin-dependent protein kinase type IV (Homo sapiens) (UniProt Q16566); details: Compound concentration 1000.0 nM
Chain of Calcium/calmodulin-dependent protein kinase type IV (Homo sapiens) (Q16566 whole entry): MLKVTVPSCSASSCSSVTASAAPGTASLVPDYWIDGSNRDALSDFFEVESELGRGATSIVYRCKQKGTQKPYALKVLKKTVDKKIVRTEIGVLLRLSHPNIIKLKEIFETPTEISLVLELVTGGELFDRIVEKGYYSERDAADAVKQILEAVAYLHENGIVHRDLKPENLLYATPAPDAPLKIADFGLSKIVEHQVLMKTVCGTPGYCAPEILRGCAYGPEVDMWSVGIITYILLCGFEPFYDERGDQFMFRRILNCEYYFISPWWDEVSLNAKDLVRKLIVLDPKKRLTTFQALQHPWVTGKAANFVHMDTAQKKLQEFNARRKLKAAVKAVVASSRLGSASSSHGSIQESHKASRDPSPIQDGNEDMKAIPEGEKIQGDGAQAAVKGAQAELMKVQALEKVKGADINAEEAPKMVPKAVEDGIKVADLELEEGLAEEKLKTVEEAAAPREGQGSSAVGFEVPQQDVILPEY

[26] = biological target: Serine/threonine-protein kinase RIO1 (Homo sapiens) (UniProt Q9BRS2); details: Compound concentration 1000.0 nM
[27] = biological target: Casein kinase II subunit alpha' (Homo sapiens) (UniProt P19784); details: Compound concentration 1000.0 nM
[28] = biological target: Serine/threonine-protein kinase BRSK1 (Homo sapiens) (UniProt Q8TDC3); details: Compound concentration 1000.0 nM
[29] = biological target: Ephrin type-A receptor 4 (Homo sapiens) (UniProt P54764); details: Compound concentration 1000.0 nM
[30] = biological target: Cyclin-dependent kinase 16 (Homo sapiens) (UniProt Q00536); details: Compound concentration 1000.0 nM
[31] = biological target: Calcium/calmodulin-dependent protein kinase type 1G (Homo sapiens) (UniProt Q96NX5); details: Compound concentration 1000.0 nM
[32] = biological target: Serine/threonine-protein kinase 26 (Homo sapiens) (UniProt Q9P289); details: Compound concentration 1000.0 nM
[33] = biological target: Cyclin-dependent kinase 14 (Homo sapiens) (UniProt O94921); details: Compound concentration 1000.0 nM
[34] = system: Epidermal growth factor receptor (Homo sapiens), P00533 [UNDEFINED MUTATION]; details: Compound concentration 1000.0 nM
[35] = biological target: Phosphorylase b kinase regulatory subunit alpha, liver isoform (Homo sapiens) (UniProt P46019); details: Compound concentration 1000.0 nM
[36] = biological target: Protein kinase C eta type (Homo sapiens) (UniProt P24723); details: Compound concentration 1000.0 nM
[37] = biological target: Serine/threonine-protein kinase 24 (Homo sapiens) (UniProt Q9Y6E0); details: Compound concentration 1000.0 nM
[38] = biological target: Tyrosine-protein kinase HCK (Homo sapiens) (UniProt P08631); details: Compound concentration 1000.0 nM
Chain of Tyrosine-protein kinase HCK (Homo sapiens) (P08631 2-526 limits assumed): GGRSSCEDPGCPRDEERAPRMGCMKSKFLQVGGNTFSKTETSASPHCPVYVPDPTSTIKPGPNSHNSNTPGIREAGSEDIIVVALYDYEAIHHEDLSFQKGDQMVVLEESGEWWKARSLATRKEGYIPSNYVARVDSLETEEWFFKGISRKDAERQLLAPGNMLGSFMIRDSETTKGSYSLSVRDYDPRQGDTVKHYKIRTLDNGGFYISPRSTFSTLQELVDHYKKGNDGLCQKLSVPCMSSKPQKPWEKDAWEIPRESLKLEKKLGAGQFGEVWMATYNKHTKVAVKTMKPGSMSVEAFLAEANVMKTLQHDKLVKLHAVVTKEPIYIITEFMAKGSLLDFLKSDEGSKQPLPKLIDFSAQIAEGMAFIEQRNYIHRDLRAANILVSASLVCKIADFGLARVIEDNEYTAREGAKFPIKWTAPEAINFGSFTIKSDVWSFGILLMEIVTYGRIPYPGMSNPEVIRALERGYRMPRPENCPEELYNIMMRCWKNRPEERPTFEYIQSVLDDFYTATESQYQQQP

[39] = biological target: Serine/threonine-protein kinase LATS1 (Homo sapiens) (UniProt O95835); details: Compound concentration 1000.0 nM
[40] = biological target: 5-hydroxytryptamine receptor 1E (Homo sapiens) (UniProt P28566); details: Compound concentration 10.0 uM
[41] = biological target: Serine/threonine-protein kinase Nek10 (Homo sapiens) (UniProt Q6ZWH5); details: Compound concentration 1000.0 nM
[42] = system: Mast/stem cell growth factor receptor Kit (Homo sapiens), P10721 [V559D,T670I]; details: Compound concentration 1000.0 nM
[43] = biological target: Serine/threonine-protein kinase 32C (Homo sapiens) (UniProt Q86UX6); details: Compound concentration 1000.0 nM
[44] = system: Proto-oncogene tyrosine-protein kinase receptor Ret (Homo sapiens), P07949 [M918T]; details: Compound concentration 1000.0 nM
[45] = biological target: Tyrosine-protein kinase Srms (Homo sapiens) (UniProt Q9H3Y6); details: Compound concentration 1000.0 nM
Chain of Tyrosine-protein kinase Srms (Homo sapiens) (Q9H3Y6 whole entry): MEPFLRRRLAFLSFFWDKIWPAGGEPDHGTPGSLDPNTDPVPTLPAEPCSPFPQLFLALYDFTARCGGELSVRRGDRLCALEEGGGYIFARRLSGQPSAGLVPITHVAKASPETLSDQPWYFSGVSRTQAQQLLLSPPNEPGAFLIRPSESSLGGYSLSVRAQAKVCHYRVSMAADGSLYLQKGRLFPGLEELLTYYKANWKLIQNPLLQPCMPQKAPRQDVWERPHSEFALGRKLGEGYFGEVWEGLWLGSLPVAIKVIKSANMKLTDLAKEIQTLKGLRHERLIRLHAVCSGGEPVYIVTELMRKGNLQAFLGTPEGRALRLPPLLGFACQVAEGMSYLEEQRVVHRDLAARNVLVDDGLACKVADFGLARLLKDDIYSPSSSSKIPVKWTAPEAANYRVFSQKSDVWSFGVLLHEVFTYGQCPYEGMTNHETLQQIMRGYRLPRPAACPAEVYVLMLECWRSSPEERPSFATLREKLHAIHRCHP

Chain of Serine/threonine-protein kinase BRSK2 (Homo sapiens) (Q8IWQ3 whole entry): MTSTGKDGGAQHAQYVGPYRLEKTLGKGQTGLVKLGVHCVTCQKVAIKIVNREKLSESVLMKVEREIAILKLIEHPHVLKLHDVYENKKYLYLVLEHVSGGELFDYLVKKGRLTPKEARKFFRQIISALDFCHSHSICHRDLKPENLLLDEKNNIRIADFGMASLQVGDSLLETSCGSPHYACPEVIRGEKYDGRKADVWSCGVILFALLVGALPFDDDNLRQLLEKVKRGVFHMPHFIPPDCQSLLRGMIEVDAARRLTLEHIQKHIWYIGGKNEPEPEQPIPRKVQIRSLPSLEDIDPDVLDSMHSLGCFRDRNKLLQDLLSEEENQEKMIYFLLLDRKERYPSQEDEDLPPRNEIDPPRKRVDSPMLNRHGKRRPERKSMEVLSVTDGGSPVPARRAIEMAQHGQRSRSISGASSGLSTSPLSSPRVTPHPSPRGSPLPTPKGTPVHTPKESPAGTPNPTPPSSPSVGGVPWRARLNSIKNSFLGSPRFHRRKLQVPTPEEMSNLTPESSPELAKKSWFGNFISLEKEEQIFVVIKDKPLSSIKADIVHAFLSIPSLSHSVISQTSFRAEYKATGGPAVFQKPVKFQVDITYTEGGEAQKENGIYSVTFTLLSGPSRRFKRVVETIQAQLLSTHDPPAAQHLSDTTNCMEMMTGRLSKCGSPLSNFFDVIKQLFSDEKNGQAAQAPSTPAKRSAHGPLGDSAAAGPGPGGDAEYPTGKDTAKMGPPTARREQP

`C[C@H](c1cccc(C#N)c1)n1cc(Cl)cc(C(N)=O)c1=N` [(R)-9s] gave a residual activity [1] of 95%, an inhibition [2] of 93.3% and a residual activity [3] of 85%. For the same molecule, the residual activity [4] was 100%, the residual activity [5] was 100% and the residual activity [6] was 100%. The residual activity [7] was 100%, the residual activity [8] was 98% and the residual activity [9] was 100%. It also gave a residual activity [10] of 65%, a residual activity [11] of 100% and an inhibition [12] of 9.16%. It also gave a residual activity [13] of 100%, a residual activity [14] of 53% and a residual activity [15] of 62%. The residual activity [16] was 83%, the residual activity [17] was 57% and the residual activity [18] was 100%. The residual activity [19] was 80%, the residual activity [20] was 74% and the residual activity [21] was 86%. For the same molecule, the inhibition [22] was -1.16%, the residual activity [23] was 92% and the residual activity [24] was 99%. It also gave a residual activity [25] of 90%, a residual activity [26] of 100% and a residual activity [27] of 100%. The residual activity [28] was 68%, the residual activity [29] was 65% and the residual activity [30] was 83%. It also gave a residual activity [31] of 100%, a residual activity [32] of 88% and a residual activity [33] of 100%. For the same molecule, the residual activity [34] was 75%, the residual activity [35] was 100% and the residual activity [36] was 100%. The residual activity [37] was 89%, the residual activity [38] was 98% and the residual activity [39] was 74%. It also gave an inhibition [40] of -3.17%, a residual activity [41] of 99% and a residual activity [42] of 100%. For the same molecule, the residual activity [43] was 100%, the residual activity [44] was 91% and the residual activity [45] was 75%.

Work on `C[C@@H](c1cccc(C#N)c1)n1cc(Cl)cc(C(N)=O)c1=N` [(S)-9s] yielded a residual activity [1] of 94%, an inhibition [2] of 60.5% and a residual activity [3] of 95%. It also gave a residual activity [4] of 100%, a residual activity [5] of 99% and a residual activity [6] of 99%. It also gave a residual activity [7] of 96%, a residual activity [8] of 100% and a residual activity [9] of 100%. For the same molecule, the residual activity [10] was 100%, the residual activity [11] was 79% and the inhibition [12] was -2.19%. For the same molecule, the residual activity [13] was 100%, the residual activity [14] was 77% and the residual activity [15] was 93%. It also gave a residual activity [16] of 87%, a residual activity [17] of 89% and a residual activity [18] of 100%. It also gave a residual activity [19] of 82%, a residual activity [20] of 75% and a residual activity [21] of 71%. For the same molecule, the inhibition [22] was -5.97%, the residual activity [23] was 97% and the residual activity [24] was 100%. For the same molecule, the residual activity [25] was 82%, the residual activity [26] was 86% and the residual activity [27] was 100%. It also gave a residual activity [28] of 93%, a residual activity [29] of 90% and a residual activity [30] of 96%. It also gave a residual activity [31] of 100%, a residual activity [32] of 68% and a residual activity [33] of 100%. For the same molecule, the residual activity [34] was 93%, the residual activity [35] was 100% and the residual activity [36] was 98%. The residual activity [37] was 100%, the residual activity [38] was 91% and the residual activity [39] was 69%. The inhibition [40] was -1.72%, the residual activity [41] was 91% and the residual activity [42] was 100%. For the same molecule, the residual activity [43] was 100%, the residual activity [44] was 100% and the residual activity [45] was 83%.
